How the values were obtained:
[1] = test system: Ova-specific OT-II TcR transgenic T cells; test: Antigen-specific OT-II T cell proliferation after sublingual administration (cell-tracker dye, flow cytometry); assay type: in vivo, mice; conditions: GLA 0.2 μg, OVa323-339 peptide 10 μg, four days later (FIGS. 4A, 4C, 4E)
Description: Ova-specific OT-II TcR transgenic T cells were labeled with cell-tracker violet dye and adoptively transferred into syngeneic wild type mice. Mice then received sublingual administration of GLA (0.2 μg) alone (FIGS. 4A and 4B), OVa323-339 peptide (10 μg) alone (FIGS. 4C and 4D), or GLA co-administered with Ova peptide (FIGS. 4E and 4F). Four days later, the draining cervical lymph nodes (FIGS. 4A, 4C, and 4E) and spleen (FIGS. 4B, 4D, and 4F) were removed and OT-II T cell proliferation (via the decrease in cell-tracker dye fluorescence) was measured by flow cytometry.
Methods. Sublingual administration was performed as described above in Example 1.
Formulations of Ova peptide and/or GLA included methylcellulose as described in Example 1. Mixtures of methylcellulose+Ova peptide, and methylcellulose+Ova peptide+GLA were prepared the day before dosing.
Ova-specific OT-II TcR transgenic T cells were labeled with cell-tracker violet dye and adoptively transferred into syngeneic wild type mice. Mice then received sublingual administration of GLA (0.2 μg, 0.02 μg or 0.002 μg) co-administered with OVa323-339 peptide or peptide without GLA (0 mg). Four days later, cervical lymph nodes were removed and OT-II T cell proliferation (via the decrease in cell-tracker dye fluorescence) was measured by flow cytometry.

IL-6 = test system: IL-6
Description: GLA was formulated in DPPC (1,2-dipalmitoyl-sn-glycero-3-phosphocholine) as GLA:DPPC 1:2 (M:M) in Millipore (sterile) water. Animals were sedated with ketamine (5 mg/kg to 10 mg/kg)/dexmedetomidine (0.01 mg/kg to 0.016 mg/kg), IM (intramuscularly), while in their cage. Once sedated, they were brought into the laboratory and placed onto a circulating water heating pad (Gaymar). Sublingual (right side) and left cheek pouch mucosal brushings were taken 15 minutes prior to dosing using Copan FLOQSwabs™ and placed into RLT buffer (QIAmp Minikit Plus, Qiagen), vortexed and immediately frozen on dry ice. Sublingual dosing of GLA (100 μl dosed via syringe) was performed under the right side of the animals tongue and allowed to absorb into the mucosa for three minutes. Further sublingual and cheek brushings were obtained at 6 hr, 24 hr and 48 hr post dosing.
RNA processing was performed from the cheek and sublingual swabs using a QIAmp Minikit Plus (Qiagen) which includes a gDNA (genomic DNA) eliminator column. Gene expression was quantified using the Comparative CT Method, which calculates the relative gene expression quantitation between a target gene and an endogenous control. All target genes were quantitated relative to the expression of the housekeeping gene ARL1. Using the relative expression, the fold of baseline expression was calculated as [(Relative gene expression at time point of interest)/(Baseline relative gene expression)].

[2] = six hours after sublingual administration

Row | Compound | antigen-specific T cell proliferation in the draining cervical lymph nodes [1] | IL-6 expression 24 hours after sublingual administration (IL-6; 24 hours after sublingual administration) | duration of local action within the oral cavity (IL-6; current formulation GLA:DPPC 1:2, sublingual) [days] | IL-6 in brushings from the cheek (IL-6; [2]) | IL-6 in the blood (IL-6; [2]) | IL-6 expression in sublingual mucosal brushings (IL-6; six hours after sublingual administration, 3 different doses of GLA)
1 | OVa323-339 peptide: Ova peptide antigen recognised by OT-II TcR transgenic T cells (KISQAVHAAHAEINEAG; UniProt P01012 323-339, looked up, fragment) | not |  |  |  |  | 
2 | CCCCCCCCCCCCCC(=O)O[C@H](CCCCCCCCCCC)CC(=O)O[C@@H]1[C@@H](NC(=O)C[C@H](CCCCCCCCCCC)OC(=O)CCCCCCCCCCCCC)[C@H](OC[C@H]2O[C@H](O)[C@H](NC(=O)C[C@H](O)CCCCCCCCCCC)[C@@H](OC(=O)C[C@H](O)CCCCCCCCCCC)[C@@H]2O)O[C@H](CO)[C@H]1OP(=O)(O)O [GLA, Glucopyranosyl Lipid A] | not | not detected | ≤ 1 | not detected | not detected | dose-dependent expression of IL-6
